Experimental data: ChEMBL document CHEMBL4811298, “Discovery of novel class of histone deacetylase inhibitors as potential anticancer agents” (Bioorg Med Chem, 2021)
Activity calls are given as the source filed them. The calls are words filed in the database; no cut-off is given here.

Assays:
MCF7 [1] = assay: Upregulation of HDAC11 gene expression in human MCF7 cells at 3 uM incubated for 24 hrs by whole transcriptome analysis; type: functional, cell-based
MCF7 [2] = assay: Induction of cell cycle arrest in human MCF7 cells assessed as accumulation at subG1 phase at 1 uM incubated for 24 to 72 hrs by PI staining based flow cytometric analysis; type: functional; conditions: time 24-72 hrs
MCF7 [3] = assay: Upregulation of HDAC4 gene expression in human MCF7 cells at 3 uM incubated for 24 hrs by whole transcriptome analysis; type: functional, cell-based
MCF7 [4] = assay: Induction of apoptosis in human MCF7 cells assessed as downregulation of c-Myc protein expression at 1 to 3 uM measured after 48 hrs western blot analysis; type: functional, cell-based; conditions: dose 1-3 µM
MCF7 [5] = assay: Induction of cell cycle arrest in human MCF7 cells assessed as accumulation at G2/M phase at 1 uM incubated for 24 hrs by PI staining based flow cytometric analysis; type: functional
MCF7 [6] = assay: Upregulation of SIRT3 gene expression in human MCF7 cells at 3 uM incubated for 24 hrs by whole transcriptome analysis; type: functional, cell-based
MCF7 [7] = assay: Upregulation of HDAC2 gene expression in human MCF7 cells at 3 uM incubated for 24 hrs by whole transcriptome analysis; type: functional, cell-based
MCF7 [8] = assay: Upregulation of c-REL gene expression in human MCF7 cells at 3 uM incubated for 24 hrs by whole transcriptome analysis; type: functional, cell-based
MCF7 [9] = assay: Upregulation of HDAC6 gene expression in human MCF7 cells at 3 uM incubated for 24 hrs by whole transcriptome analysis; type: functional, cell-based
MCF7 [10] = assay: Upregulation of HDAC3 gene expression in human MCF7 cells at 3 uM incubated for 24 hrs by whole transcriptome analysis; type: functional, cell-based
MCF7 [11] = assay: Upregulation of HDAC5 gene expression in human MCF7 cells at 3 uM incubated for 24 hrs by whole transcriptome analysis; type: functional, cell-based
MCF7 [12] = assay: Upregulation of SIRT6 gene expression in human MCF7 cells at 3 uM incubated for 24 hrs by whole transcriptome analysis; type: functional, cell-based
MCF7 [13] = assay: Induction of apoptosis in human MCF7 cells assessed as increase in caspase 3/7 activity at 1 to 3 uM measured after 48 hrs by ELISA; type: functional, cell-based; conditions: dose 1-3 µM
MCF7 [14] = assay: Upregulation of RELA (p65 ) gene expression in human MCF7 cells at 3 uM incubated for 24 hrs by whole transcriptome analysis; type: functional, cell-based
MCF7 [15] = assay: Upregulation of NFkB2 gene expression in human MCF7 cells at 3 uM incubated for 24 hrs by whole transcriptome analysis; type: functional, cell-based
Histone deacetylase 1 = Histone deacetylase 1 (Homo sapiens, UniProt Q13547); assay: (§1) Inhibition of C-terminal FLAG/His-tagged human recombinant HDAC1 (1 to 482 residues) expressed in baculovirus-infected Sf9 cells assessed as reduction in 7-amino-4-methylcoumarin release using fluorogenic HDAC substrate 3 measured every 5 mins by fluorescence based analysis
Histone deacetylase 2 = Histone deacetylase 2 (Homo sapiens, UniProt Q92769); type: cell-based, Sf9
MCF7 [16] = assay: Upregulation of SIRT5 gene expression in human MCF7 cells at 3 uM incubated for 24 hrs by whole transcriptome analysis; type: functional, cell-based
Histone deacetylase 7 = target: T1, Histone deacetylase 7 (Homo sapiens, UniProt Q8WUI4); assay: Inhibition of N-terminal GST-tagged human HDAC7 (518 to end residues) expressed in baculovirus-infected Sf9 cells assessed as reduction in 7-amino-4-methylcoumarin release measured every 5 mins by fluorescence based analysis
T1 sequence (Q8WUI4 whole entry): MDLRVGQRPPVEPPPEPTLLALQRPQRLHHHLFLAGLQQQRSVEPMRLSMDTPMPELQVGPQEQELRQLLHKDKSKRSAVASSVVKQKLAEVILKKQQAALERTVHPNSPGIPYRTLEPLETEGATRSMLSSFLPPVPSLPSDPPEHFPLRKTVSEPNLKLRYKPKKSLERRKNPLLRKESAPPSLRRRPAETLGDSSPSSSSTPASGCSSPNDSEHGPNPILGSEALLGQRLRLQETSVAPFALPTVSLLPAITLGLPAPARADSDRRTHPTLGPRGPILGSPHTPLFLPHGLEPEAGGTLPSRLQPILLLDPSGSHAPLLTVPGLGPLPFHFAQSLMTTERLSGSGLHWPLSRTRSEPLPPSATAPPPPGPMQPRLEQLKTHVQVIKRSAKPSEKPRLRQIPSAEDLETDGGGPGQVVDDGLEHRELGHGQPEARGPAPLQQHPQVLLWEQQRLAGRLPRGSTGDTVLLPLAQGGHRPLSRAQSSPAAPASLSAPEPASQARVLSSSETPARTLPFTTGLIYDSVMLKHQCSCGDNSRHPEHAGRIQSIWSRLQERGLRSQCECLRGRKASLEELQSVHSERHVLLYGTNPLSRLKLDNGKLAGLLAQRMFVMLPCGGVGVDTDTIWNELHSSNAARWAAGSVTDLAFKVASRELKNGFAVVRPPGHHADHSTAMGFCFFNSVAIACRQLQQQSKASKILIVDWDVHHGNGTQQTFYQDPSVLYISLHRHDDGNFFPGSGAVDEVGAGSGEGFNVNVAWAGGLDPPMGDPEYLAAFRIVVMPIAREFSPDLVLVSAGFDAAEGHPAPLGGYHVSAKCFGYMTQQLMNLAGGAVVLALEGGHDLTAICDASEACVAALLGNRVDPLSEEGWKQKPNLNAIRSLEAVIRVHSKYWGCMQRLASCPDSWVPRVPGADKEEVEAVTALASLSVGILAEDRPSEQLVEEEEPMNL

MCF7 [17] = assay: Upregulation of HDAC7 gene expression in human MCF7 cells at 3 uM incubated for 24 hrs by whole transcriptome analysis; type: functional, cell-based
MCF7 [18] = assay: Upregulation of SIRT2 gene expression in human MCF7 cells at 3 uM incubated for 24 hrs by whole transcriptome analysis; type: functional, cell-based
MCF7 [19] = assay: Upregulation of NFkB1 gene expression in human MCF7 cells at 3 uM incubated for 24 hrs by whole transcriptome analysis; type: functional, cell-based
MCF7 [20] = assay: Upregulation of RELB gene expression in human MCF7 cells at 3 uM incubated for 24 hrs by whole transcriptome analysis; type: functional, cell-based
MCF7 [21] = assay: Upregulation of SIRT4 gene expression in human MCF7 cells at 3 uM incubated for 24 hrs by whole transcriptome analysis; type: functional, cell-based
MCF7 [22] = assay: Upregulation of HDAC8 gene expression in human MCF7 cells at 3 uM incubated for 24 hrs by whole transcriptome analysis; type: functional, cell-based
Histone deacetylase 5 [23] = target: T2, Histone deacetylase 5 (Homo sapiens, UniProt Q9UQL6); assay: Potency index, ratio of vorinostat IC50 to test compound IC50 for Inhibition of N-terminal GST-tagged human recombinant full length HDAC5 expressed in baculovirus-infected Sf9 cells assessed as reduction in 7-amino-4-methylcoumarin release measured every 5 mins by fluorescence based analysis
Histone deacetylase 9 = Histone deacetylase 9 (Homo sapiens, UniProt Q9UKV0); assay: Inhibition of C-terminal His-tagged human HDAC9 (604 to 1066 residues) expressed in baculovirus-infected Sf9 cells assessed as reduction in 7-amino-4-methylcoumarin release measured every 5 mins by fluorescence based analysis
Histone deacetylase 4 = Histone deacetylase 4 (Homo sapiens, UniProt P56524); assay: Inhibition of N-terminal GST-tagged/C-terminal His-tagged human recombinant HDAC4 (627 to 1084 residues) expressed in baculovirus-infected Sf9 cells assessed as reduction in 7-amino-4-methylcoumarin release measured every 5 mins by fluorescence based analysis
MCF7 [24] = assay: Induction of cell cycle arrest in human MCF7 cells assessed as accumulation at G1/S phase at 1 uM incubated for 4 hrs by PI staining based flow cytometric analysis; type: functional
[25] = target: Histone deacetylase 3/Nuclear receptor corepressor 2 (HDAC3/NCoR2) (Homo sapiens, UniProt O15379); assay: as §1, with “His-tagged” for “FLAG/His-tagged”, “full length HDAC3” for “HDAC1”, “428 residues)/N-terminal GST-tagged human recombinant NCOR2 (395 to 489” for “482”
MCF7 [26] = assay: Upregulation of SIRT1 gene expression in human MCF7 cells at 3 uM incubated for 24 hrs by whole transcriptome analysis; type: functional, cell-based
MCF7 [27] = assay: Upregulation of SIRT7 gene expression in human MCF7 cells at 3 uM incubated for 24 hrs by whole transcriptome analysis; type: functional, cell-based
Histone deacetylase 5 [28] = target: T2, Histone deacetylase 5; assay: Inhibition of N-terminal GST-tagged human recombinant full length HDAC5 expressed in baculovirus-infected Sf9 cells assessed as reduction in 7-amino-4-methylcoumarin release measured every 5 mins by fluorescence based analysis
MCF7 [29] = assay: Upregulation of HDAC10 gene expression in human MCF7 cells at 3 uM incubated for 24 hrs by whole transcriptome analysis; type: functional, cell-based
MCF7 [30] = assay: Upregulation of HDAC1 gene expression in human MCF7 cells at 3 uM incubated for 24 hrs by whole transcriptome analysis; type: functional, cell-based

T2 sequence (Q9UQL6 whole entry, the tested form may be a part): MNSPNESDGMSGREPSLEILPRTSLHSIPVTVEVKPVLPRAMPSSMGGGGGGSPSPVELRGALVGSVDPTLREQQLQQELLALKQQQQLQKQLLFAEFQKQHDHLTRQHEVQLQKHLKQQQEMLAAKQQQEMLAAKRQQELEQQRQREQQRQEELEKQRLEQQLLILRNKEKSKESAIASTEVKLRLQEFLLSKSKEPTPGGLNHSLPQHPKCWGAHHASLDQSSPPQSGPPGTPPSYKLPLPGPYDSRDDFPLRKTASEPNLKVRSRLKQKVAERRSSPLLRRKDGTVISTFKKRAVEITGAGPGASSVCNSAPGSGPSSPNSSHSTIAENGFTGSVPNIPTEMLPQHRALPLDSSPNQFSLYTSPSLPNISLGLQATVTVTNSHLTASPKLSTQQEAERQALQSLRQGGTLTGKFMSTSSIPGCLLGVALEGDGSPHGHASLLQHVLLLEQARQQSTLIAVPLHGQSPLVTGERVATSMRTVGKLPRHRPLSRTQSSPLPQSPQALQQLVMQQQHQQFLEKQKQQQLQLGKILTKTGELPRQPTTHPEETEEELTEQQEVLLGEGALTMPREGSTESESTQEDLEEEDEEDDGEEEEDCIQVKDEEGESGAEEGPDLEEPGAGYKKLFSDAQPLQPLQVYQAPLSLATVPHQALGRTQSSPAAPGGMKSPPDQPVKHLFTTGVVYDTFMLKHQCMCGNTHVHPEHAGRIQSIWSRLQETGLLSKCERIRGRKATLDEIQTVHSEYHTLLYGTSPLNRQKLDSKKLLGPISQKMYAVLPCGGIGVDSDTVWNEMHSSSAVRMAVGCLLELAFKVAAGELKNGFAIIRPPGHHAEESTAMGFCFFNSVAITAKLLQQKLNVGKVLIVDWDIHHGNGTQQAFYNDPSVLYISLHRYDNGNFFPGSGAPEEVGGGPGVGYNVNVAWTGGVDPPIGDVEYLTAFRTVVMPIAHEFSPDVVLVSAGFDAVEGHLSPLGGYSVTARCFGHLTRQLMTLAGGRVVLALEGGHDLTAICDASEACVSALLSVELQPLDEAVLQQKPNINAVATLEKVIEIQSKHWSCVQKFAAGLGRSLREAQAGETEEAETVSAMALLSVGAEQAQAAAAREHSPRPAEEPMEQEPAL
Chain of Histone deacetylase 1 (Q13547 whole entry, the tested form may be a part): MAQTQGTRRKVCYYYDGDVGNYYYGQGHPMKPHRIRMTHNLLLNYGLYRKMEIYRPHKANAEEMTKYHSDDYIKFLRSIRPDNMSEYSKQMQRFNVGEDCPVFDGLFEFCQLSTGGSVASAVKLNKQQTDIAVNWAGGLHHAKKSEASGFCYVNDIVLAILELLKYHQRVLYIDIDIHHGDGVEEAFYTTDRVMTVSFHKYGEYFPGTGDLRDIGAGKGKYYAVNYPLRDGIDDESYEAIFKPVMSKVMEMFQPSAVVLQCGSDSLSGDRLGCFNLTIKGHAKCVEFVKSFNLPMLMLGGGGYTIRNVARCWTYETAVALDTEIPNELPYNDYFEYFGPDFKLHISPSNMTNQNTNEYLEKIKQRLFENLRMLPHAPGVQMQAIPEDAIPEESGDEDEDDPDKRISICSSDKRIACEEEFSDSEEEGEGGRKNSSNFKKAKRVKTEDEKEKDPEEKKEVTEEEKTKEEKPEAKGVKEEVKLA
Chain of Histone deacetylase 4 (P56524 whole entry, the tested form may be a part): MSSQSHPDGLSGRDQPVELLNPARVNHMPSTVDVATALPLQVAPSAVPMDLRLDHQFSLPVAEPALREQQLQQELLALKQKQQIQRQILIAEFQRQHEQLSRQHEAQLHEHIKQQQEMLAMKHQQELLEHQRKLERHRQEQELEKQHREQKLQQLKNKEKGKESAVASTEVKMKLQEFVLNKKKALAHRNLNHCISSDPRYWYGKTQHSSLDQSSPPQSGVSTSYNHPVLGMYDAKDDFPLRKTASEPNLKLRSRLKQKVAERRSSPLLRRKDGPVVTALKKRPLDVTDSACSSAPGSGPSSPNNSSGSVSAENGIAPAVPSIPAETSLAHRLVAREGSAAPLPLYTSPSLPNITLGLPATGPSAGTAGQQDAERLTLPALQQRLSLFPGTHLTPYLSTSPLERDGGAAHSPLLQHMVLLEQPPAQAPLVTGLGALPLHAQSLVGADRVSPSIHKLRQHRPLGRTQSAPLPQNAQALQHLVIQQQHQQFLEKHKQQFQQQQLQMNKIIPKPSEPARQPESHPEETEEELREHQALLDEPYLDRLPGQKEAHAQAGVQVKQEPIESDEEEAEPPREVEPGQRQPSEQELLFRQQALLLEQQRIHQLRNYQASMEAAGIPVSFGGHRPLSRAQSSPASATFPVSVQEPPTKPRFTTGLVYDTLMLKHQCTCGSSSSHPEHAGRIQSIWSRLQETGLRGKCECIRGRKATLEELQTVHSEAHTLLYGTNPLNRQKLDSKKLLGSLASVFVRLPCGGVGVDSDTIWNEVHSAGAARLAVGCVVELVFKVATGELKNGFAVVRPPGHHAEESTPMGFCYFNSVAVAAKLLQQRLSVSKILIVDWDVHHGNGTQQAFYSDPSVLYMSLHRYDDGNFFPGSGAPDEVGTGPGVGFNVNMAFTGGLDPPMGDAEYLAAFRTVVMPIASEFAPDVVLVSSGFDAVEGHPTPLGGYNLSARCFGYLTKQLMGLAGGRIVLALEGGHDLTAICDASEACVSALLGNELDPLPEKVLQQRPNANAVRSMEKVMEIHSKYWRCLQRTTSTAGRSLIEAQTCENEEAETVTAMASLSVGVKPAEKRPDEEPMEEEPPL
Chain of Histone deacetylase 9 (Q9UKV0 whole entry, the tested form may be a part): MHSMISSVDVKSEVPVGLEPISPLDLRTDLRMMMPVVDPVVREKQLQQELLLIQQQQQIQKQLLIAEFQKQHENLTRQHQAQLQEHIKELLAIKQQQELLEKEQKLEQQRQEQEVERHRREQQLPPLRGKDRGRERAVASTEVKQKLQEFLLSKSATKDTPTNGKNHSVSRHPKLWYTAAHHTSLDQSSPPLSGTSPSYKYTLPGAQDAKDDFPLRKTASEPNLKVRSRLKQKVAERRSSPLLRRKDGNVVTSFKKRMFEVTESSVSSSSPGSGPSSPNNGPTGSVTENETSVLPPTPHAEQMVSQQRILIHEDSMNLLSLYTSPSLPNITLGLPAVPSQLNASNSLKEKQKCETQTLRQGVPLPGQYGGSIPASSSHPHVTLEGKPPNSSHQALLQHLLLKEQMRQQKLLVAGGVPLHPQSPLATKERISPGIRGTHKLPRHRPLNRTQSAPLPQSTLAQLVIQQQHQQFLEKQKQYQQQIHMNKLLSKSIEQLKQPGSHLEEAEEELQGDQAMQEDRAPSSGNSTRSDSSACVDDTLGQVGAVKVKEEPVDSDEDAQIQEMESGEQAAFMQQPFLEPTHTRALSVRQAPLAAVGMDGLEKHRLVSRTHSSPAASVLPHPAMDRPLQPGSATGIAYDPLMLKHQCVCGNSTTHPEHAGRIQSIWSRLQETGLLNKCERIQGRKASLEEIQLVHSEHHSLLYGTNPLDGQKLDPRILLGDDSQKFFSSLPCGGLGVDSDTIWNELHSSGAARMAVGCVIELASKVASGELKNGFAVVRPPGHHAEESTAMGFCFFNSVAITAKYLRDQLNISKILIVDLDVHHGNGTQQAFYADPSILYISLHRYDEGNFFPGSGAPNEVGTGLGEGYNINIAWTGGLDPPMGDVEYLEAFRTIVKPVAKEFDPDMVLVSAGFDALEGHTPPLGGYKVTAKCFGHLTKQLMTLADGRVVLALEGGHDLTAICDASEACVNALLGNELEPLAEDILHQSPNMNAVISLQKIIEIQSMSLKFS
Chain of Histone deacetylase 2 (Q92769 whole entry): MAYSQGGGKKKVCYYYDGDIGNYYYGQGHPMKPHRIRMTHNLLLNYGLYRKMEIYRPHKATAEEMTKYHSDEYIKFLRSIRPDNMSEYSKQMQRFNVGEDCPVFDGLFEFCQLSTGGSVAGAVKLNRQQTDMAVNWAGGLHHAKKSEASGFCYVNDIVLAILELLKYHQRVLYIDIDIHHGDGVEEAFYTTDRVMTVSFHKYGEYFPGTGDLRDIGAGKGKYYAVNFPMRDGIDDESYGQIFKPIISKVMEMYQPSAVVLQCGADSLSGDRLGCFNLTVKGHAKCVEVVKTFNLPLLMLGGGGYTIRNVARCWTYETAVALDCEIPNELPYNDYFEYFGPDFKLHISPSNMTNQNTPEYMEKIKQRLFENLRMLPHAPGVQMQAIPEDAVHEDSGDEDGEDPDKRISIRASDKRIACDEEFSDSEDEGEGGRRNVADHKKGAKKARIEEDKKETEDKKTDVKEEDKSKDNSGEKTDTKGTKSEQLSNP

IC50 (Histone deacetylase 1): > 10 µM
IC50 (Histone deacetylase 2): > 10 µM
IC50 (Histone deacetylase 7): > 10 µM
Ratio IC50 (Histone deacetylase 5 [23]): > 33
IC50 (Histone deacetylase 9): > 10 µM
IC50 (Histone deacetylase 4): 8 µM
IC50 [25]: > 10 µM
IC50 (Histone deacetylase 5 [28]): 0.307 µM
SMILES: CC(C)(C)Nc1c(-c2cccc(-c3nc4cc(-c5noc(C(F)(F)F)n5)ccc4[nH]3)c2)nc2cnccn12
Activity (MCF7 [1]): Active
Activity (MCF7 [2]): Active
Activity (MCF7 [3]): Active
Activity (MCF7 [4]): Active
Activity (MCF7 [5]): Active
Activity (MCF7 [6]): Active
Activity (MCF7 [7]): Active
Activity (MCF7 [8]): Active
Activity (MCF7 [9]): Active
Activity (MCF7 [10]): Active
Activity (MCF7 [11]): Active
Activity (MCF7 [12]): Active
Activity (MCF7 [13]): Active
Activity (MCF7 [14]): Active
Activity (MCF7 [15]): Active
Activity (MCF7 [16]): Active
Activity (MCF7 [17]): Active
Activity (MCF7 [18]): Active
Activity (MCF7 [19]): Active
Activity (MCF7 [20]): Active
Activity (MCF7 [21]): Active
Activity (MCF7 [22]): Active
Activity (MCF7 [24]): Active
Activity (MCF7 [26]): Active
Activity (MCF7 [27]): Active
Activity (MCF7 [29]): Active
Activity (MCF7 [30]): Active
